The assay has as its target TTX resistant Na channel of human SNS-expressing cell (SNS) (Homo sapiens, UniProt Q9Y5Y9). In words: cell-based. Conditions: CHO-K1, compound concentration 12.5 μM; read-out: SNS inhibitory rate (%).
Chain of TTX resistant Na channel of human SNS-expressing cell (SNS) (Q9Y5Y9 whole entry, looked up): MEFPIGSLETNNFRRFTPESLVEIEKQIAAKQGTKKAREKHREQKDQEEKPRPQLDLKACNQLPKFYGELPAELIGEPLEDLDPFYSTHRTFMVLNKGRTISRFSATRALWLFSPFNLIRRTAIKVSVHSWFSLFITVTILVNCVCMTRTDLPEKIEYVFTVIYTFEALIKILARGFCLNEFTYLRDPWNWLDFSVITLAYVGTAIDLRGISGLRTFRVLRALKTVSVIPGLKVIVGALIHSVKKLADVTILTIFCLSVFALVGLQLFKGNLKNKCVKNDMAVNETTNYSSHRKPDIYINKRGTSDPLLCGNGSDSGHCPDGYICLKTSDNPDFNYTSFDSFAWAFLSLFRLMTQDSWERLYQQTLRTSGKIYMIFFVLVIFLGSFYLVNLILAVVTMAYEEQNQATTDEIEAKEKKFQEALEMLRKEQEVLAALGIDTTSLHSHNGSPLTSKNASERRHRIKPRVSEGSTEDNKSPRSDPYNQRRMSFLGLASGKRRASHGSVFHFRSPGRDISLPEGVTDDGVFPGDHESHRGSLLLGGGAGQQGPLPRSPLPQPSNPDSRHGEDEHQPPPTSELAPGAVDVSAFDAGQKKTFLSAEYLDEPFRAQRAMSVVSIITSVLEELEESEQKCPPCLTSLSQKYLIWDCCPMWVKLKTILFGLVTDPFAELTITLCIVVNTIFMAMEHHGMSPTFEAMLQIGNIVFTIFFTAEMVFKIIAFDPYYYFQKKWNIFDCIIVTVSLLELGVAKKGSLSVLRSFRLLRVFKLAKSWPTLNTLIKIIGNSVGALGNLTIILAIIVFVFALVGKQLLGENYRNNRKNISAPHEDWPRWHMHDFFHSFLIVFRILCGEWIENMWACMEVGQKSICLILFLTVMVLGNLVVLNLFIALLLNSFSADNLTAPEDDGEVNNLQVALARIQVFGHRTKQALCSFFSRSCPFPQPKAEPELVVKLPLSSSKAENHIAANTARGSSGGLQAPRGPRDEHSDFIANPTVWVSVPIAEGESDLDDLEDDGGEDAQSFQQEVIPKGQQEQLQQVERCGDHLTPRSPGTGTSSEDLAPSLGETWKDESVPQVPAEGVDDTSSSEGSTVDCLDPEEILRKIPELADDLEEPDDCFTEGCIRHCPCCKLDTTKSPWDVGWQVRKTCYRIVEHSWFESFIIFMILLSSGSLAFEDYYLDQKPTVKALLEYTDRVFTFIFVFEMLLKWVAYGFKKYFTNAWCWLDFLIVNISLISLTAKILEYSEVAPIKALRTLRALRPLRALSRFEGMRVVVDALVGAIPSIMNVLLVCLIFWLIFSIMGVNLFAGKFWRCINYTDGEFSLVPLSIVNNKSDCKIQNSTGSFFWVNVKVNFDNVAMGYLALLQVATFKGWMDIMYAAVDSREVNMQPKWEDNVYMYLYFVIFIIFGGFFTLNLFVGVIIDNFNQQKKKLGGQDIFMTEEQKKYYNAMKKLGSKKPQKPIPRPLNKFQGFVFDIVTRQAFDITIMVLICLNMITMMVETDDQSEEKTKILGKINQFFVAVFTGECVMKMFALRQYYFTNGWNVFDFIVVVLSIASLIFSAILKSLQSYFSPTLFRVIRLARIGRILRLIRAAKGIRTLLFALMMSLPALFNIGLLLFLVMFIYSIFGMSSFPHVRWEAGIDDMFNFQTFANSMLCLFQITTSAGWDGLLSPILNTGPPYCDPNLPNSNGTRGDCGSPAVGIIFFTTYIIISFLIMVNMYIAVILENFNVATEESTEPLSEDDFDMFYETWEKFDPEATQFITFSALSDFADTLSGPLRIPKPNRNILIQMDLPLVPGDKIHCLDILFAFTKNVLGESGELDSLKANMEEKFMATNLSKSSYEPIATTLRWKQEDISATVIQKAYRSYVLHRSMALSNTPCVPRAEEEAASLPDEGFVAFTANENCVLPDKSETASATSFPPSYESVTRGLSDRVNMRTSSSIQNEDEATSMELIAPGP
In the case of `CCOCCn1c(CN[C@@H](C)C(N)=O)nc2ccc(Oc3ccccc3)cc21` [Example 1, N^2-{[1-(2-ethoxyethyl)-6-phenoxy-1H-benzimidazol-2-yl]methyl}-L-alaninamide], the inhibition at 12.5 µM is 45.8%.

With `CCOCCn1c(CNCC(N)=O)nc2ccc(Oc3ccccc3)cc21` [Example 2, N^2-{[1-(2-ethoxyethyl)-6-phenoxy-1H-benzimidazol-2-yl]methyl}glycinamide], the inhibition at 12.5 µM stood at 8.4%.

As to `CCOCCn1c(CNCC(N)=O)nc2ccc(Oc3ccc(F)cc3)cc21` [Example 3, N^2-{[1-(2-ethoxyethyl)-6-(4-fluorophenoxy)-1H-benzimidazol-2-yl]methyl}glycinamide], the inhibition at 12.5 µM came out at 12.9%.

For `CCOCCn1c(CN[C@H](C(N)=O)C(C)C)nc2ccc(Oc3ccc(F)cc3)cc21` [Example 4, N^2-{[1-(2-ethoxyethyl)-6-(4-fluorophenoxy)-1H-benzimidazol-2-yl]methyl}-L-valinamide], the inhibition at 12.5 µM is 66.8%.

Regarding `CCOCCn1c(CNC(C)(C)C(N)=O)nc2ccc(Oc3ccc(F)cc3)cc21` [Example 5, N^2-{[1-(2-ethoxyethyl)-6-(4-fluorophenoxy)-1H-benzimidazol-2-yl]methyl}-2-methylalaninamide], the inhibition at 12.5 µM was determined as 59.3%.

As to `C[C@H](NCc1nc2ccc(Oc3ccc(F)cc3)cc2n1C1CCOCC1)C(N)=O` [Example 6], the inhibition at 12.5 µM was 77.8%.

As for `C[C@H](NCc1nc2ccc(Oc3ccc(F)cc3)cc2n1C1CC1)C(N)=O` [Example 7], the inhibition at 12.5 µM amounted to 83.1%.

In the case of `CC(C)(NCc1nc2ccc(Oc3ccc(F)cc3)cc2n1C1CCOCC1)C(N)=O` [Example 8], the inhibition at 12.5 µM was found to be 90.4%.

For the compound `CC(C)n1c(CN[C@@H](C)C(N)=O)nc2ccc(Oc3ccccc3)cc21` [Example 9], the inhibition at 12.5 µM was 28.9%.

Take `CC(C)n1c(CNCC(N)=O)nc2ccc(Oc3ccccc3)cc21` [Example 10]: the inhibition at 12.5 µM worked out at 16.3%.

Take `C[C@H](NCc1nc2ccc(Oc3ccccc3)cc2n1C1CCC1)C(N)=O` [Example 11]: the inhibition at 12.5 µM turned out to be 63%.

Take `NC(=O)CNCc1nc2ccc(Oc3ccccc3)cc2n1C1CCC1` [Example 12]: the inhibition at 12.5 µM turned out to be 17%.

For the compound `C[C@H](NCc1nc2ccc(Oc3ccccc3)cc2n1CC1CCOCC1)C(N)=O` [Example 13], the inhibition at 12.5 µM was 29.8%.

As for `NC(=O)CNCc1nc2ccc(Oc3ccccc3)cc2n1CC1CCOCC1` [Example 14], the inhibition at 12.5 µM amounted to 16.4%.

Consider `CCOCCn1c(CN2CCC[C@H]2C(N)=O)nc2ccc(Oc3ccc(F)cc3)cc21` [Example 15], for which the inhibition at 12.5 µM was found to be 95.7%.

As for `NC(=O)[C@@H]1CCCN1Cc1nc2ccc(Oc3ccccc3)cc2n1CC1CCOCC1` [Example 16], the inhibition at 12.5 µM was found to be 96.2%.

`C[C@H](NCc1nc2ccc(Oc3ccc(F)cc3)cc2n1C1CCC1)C(N)=O` [Example 17]: the inhibition at 12.5 µM worked out at 89.3%.

As for `NC(=O)CNCc1nc2ccc(Oc3ccc(F)cc3)cc2n1C1CCC1` [Example 18], the inhibition at 12.5 µM was determined as 14.2%.

As to `NC(=O)[C@@H]1CCCN1Cc1nc2ccc(Oc3ccccc3)cc2n1C[C@H]1CCCO1` [Example 19], the inhibition at 12.5 µM was determined as 100%.

As to `C[C@H](NCc1nc2ccc(Oc3ccccc3)cc2n1C[C@H]1CCCO1)C(N)=O` [Example 20], the inhibition at 12.5 µM stood at 7.2%.

For `NC(=O)[C@@H]1CCCN1Cc1nc2ccc(Oc3ccccc3)cc2n1C[C@@H]1CCCO1` [Example 21], the inhibition at 12.5 µM was 100%.

As to `C[C@H](NCc1nc2ccc(Oc3ccccc3)cc2n1C[C@@H]1CCCO1)C(N)=O` [Example 22], the inhibition at 12.5 µM worked out at 16.4%.

`COCCCn1c(CNCC(N)=O)nc2ccc(Oc3ccccc3)cc21` [Example 23]: the inhibition at 12.5 µM stood at 0.8%.

Consider `COCCCn1c(CN[C@@H](C)C(N)=O)nc2ccc(Oc3ccccc3)cc21` [Example 24], for which the inhibition at 12.5 µM was found to be 5.8%.

As for `NC(=O)CNCc1nc2ccc(Oc3ccccc3)cc2n1C1CCCC1` [Example 25], the inhibition at 12.5 µM stood at 0%.

In the case of `C[C@H](NCc1nc2ccc(Oc3ccccc3)cc2n1C1CCCC1)C(N)=O` [Example 26], the inhibition at 12.5 µM came out at 26.6%.

With `CCOCCn1c(CN[C@@H](C)C(N)=O)nc2ccc(Oc3ccc(Cl)cc3)cc21` [Example 27], the inhibition at 12.5 µM was found to be 78.2%.

As to `CCOCCn1c(CNCC(N)=O)nc2ccc(Oc3ccc(Cl)cc3)cc21` [Example 28], the inhibition at 12.5 µM was determined as 27.4%.

As for `CCOCCn1c(CN[C@@H](C)C(N)=O)nc2ccc(Oc3cccc(Cl)c3)cc21` [Example 29], the inhibition at 12.5 µM amounted to 27%.

In the case of `CCOCCn1c(CNC(C)(C)C(N)=O)nc2ccc(Oc3cccc(Cl)c3)cc21` [Example 30], the inhibition at 12.5 µM amounted to 31.5%.

For the compound `CCOCCn1c(CN[C@@H](C)C(N)=O)nc2ccc(Oc3ccccc3Cl)cc21` [Example 31], the inhibition at 12.5 µM came to 92.1%.

As to `CCOCCn1c(CNC(C)(C)C(N)=O)nc2ccc(Oc3ccccc3Cl)cc21` [Example 32], the inhibition at 12.5 µM came to 91.2%.

On to `CC(C)(NCc1nc2ccc(Oc3ccccc3)cc2n1C1CCC1)C(N)=O` [Example 33], for which the inhibition at 12.5 µM was 32.9%.

`C[C@@H](NCc1nc2ccc(Oc3ccccc3)cc2n1C1CCC1)C(N)=O` [Example 34]: the inhibition at 12.5 µM was determined as 6.7%.

In the case of `CC(C)(NCc1nc2ccc(Oc3ccccc3)cc2n1C[C@@H]1CCCO1)C(N)=O` [Example 35], the inhibition at 12.5 µM was 10.8%.

As to `CCOCCn1c(CN[C@H](C)C(N)=O)nc2ccc(Oc3ccccc3)cc21` [Example 36], the inhibition at 12.5 µM was found to be 0.4%.

Take `CCOCCn1c(CN[C@@H](CC)C(N)=O)nc2ccc(Oc3ccccc3)cc21` [Example 37]: the inhibition at 12.5 µM amounted to 42.3%.

Turning to `CCOCCn1c(CN[C@H](C(N)=O)C(C)C)nc2ccc(Oc3ccccc3)cc21` [Example 38], the inhibition at 12.5 µM amounted to 48.8%.

Regarding `CCOCCn1c(CNC(C)(C)C(N)=O)nc2ccc(Oc3ccccc3)cc21` [Example 39], the inhibition at 12.5 µM is 48.8%.

As to `CCOCCn1c(CN(C)CC(N)=O)nc2ccc(Oc3ccccc3)cc21` [Example 40], the inhibition at 12.5 µM was found to be 95.8%.

On to `CCOCCn1c(CN[C@@H](CC)C(N)=O)nc2ccc(Oc3ccc(F)cc3)cc21` [Example 41], for which the inhibition at 12.5 µM worked out at 99.7%.

Take `CCOCCn1c(CN[C@@H](C)C(N)=O)nc2ccc(Oc3ccc(C)cc3)cc21` [Example 42]: the inhibition at 12.5 µM worked out at 76.7%.

For the compound `CCOCCn1c(CN[C@@H](C)C(N)=O)nc2ccc(Oc3ccc(OC(F)(F)F)cc3)cc21` [Example 43], the inhibition at 12.5 µM is 61%.

In the case of `CCOCCn1c(CN[C@@H](C)C(N)=O)nc2ccc(Oc3cc(F)c(F)c(F)c3)cc21` [Example 44], the inhibition at 12.5 µM was found to be 84.9%.

`CCOCCn1c(CN[C@@H](C)C(N)=O)nc2ccc(Oc3ccc(C#N)cc3)cc21` [Example 45]: the inhibition at 12.5 µM is 40.6%.

As for `CCOCCn1c(CN[C@@H](C)C(N)=O)nc2ccc(Oc3ccc(C(F)(F)F)cc3)cc21` [Example 46], the inhibition at 12.5 µM was 95.5%.

In the case of `CCOCCCn1c(CN[C@@H](C)C(N)=O)nc2ccc(Oc3ccc(F)cc3)cc21` [Example 47], the inhibition at 12.5 µM turned out to be 86.6%.

Take `CCOCCn1c(CN[C@@H](C)C(N)=O)nc2ccc(Oc3ccc(F)c(F)c3)cc21` [Example 48]: the inhibition at 12.5 µM amounted to 96.7%.

Take `CCOCCn1c(CN[C@@H](C)C(N)=O)nc2ccc(Oc3ccc(F)cc3F)cc21` [Example 49]: the inhibition at 12.5 µM is 94.8%.

For `C[C@H](NCc1nc2ccc(Oc3ccc(F)cc3)cc2n1CC(C)(C)O)C(N)=O` [Example 50], the inhibition at 12.5 µM came to 86.8%.

Take `C[C@H](NCc1nc2ccc(Oc3ccc(F)cc3)cc2n1C[C@H]1CCCO1)C(N)=O` [Example 51]: the inhibition at 12.5 µM is 90.5%.

As to `CCOCCn1c(CN[C@@H](C)C(N)=O)nc2ccc(Oc3ccccc3F)cc21` [Example 52], the inhibition at 12.5 µM came out at 89.7%.

For the compound `CCOCCn1c(CN[C@@H](C)C(N)=O)nc2ccc(Oc3cccc(F)c3)cc21` [Example 53], the inhibition at 12.5 µM was determined as 94%.

Turning to `CCOCCn1c(CN[C@H](C)C(N)=O)nc2ccc(Oc3ccc(F)cc3)cc21` [Example 54], the inhibition at 12.5 µM came to 95.7%.

On to `CCOCCn1c(CN[C@@H](C)C(N)=O)nc2ccc(Oc3cc(F)c(F)cc3F)cc21` [Example 55], for which the inhibition at 12.5 µM stood at 89.4%.

As to `C[C@H](NCc1nc2ccc(Oc3ccc(F)cc3)cc2n1C[C@@H]1CCCO1)C(N)=O` [Example 56], the inhibition at 12.5 µM came to 82.2%.

Take `CCOCCn1c(CN[C@@H](C)C(N)=O)nc2ccc(Oc3cc(F)cc(F)c3F)cc21` [Example 57]: the inhibition at 12.5 µM amounted to 87.6%.

For `CCOCCn1c(CN[C@@H](C)C(N)=O)nc2ccc(Oc3cccc(F)c3F)cc21` [Example 58], the inhibition at 12.5 µM was found to be 71.2%.

Regarding `CCOCCn1c(CN[C@@H](C)C(N)=O)nc2ccc(Oc3ccc(F)cc3)cc21` [Example 59, N^2-{[1-(2-ethoxyethyl)-6-(4-fluorophenoxy)-1H-benzimidazol-2-yl]methyl}-L-alaninamide], the inhibition at 12.5 µM turned out to be 54.8%.

`COCCn1c(CN[C@@H](C)C(N)=O)nc2ccc(Oc3ccc(F)cc3)cc21` [Example 60]: the inhibition at 12.5 µM amounted to 75.7%.

For the compound `CC(C)OCCn1c(CNCC(N)=O)nc2ccc(Oc3ccc(F)cc3)cc21` [Example 61], the inhibition at 12.5 µM is 26.1%.

Regarding `CC(C)OCCn1c(CN[C@@H](C)C(N)=O)nc2ccc(Oc3ccc(F)cc3)cc21` [Example 62], the inhibition at 12.5 µM was found to be 93.8%.

As to `COCCn1c(CNCC(N)=O)nc2ccc(Oc3ccc(F)cc3)cc21` [Example 63], the inhibition at 12.5 µM amounted to 9.2%.

Turning to `COCCCn1c(CN[C@@H](C)C(N)=O)nc2ccc(Oc3ccc(F)cc3)cc21` [Example 64], the inhibition at 12.5 µM came out at 82.7%.

In the case of `NC(=O)CNCc1nc2ccc(Oc3ccc(F)cc3)cc2n1C1CCOCC1` [Example 65], the inhibition at 12.5 µM is 47.8%.

Turning to `CCOCCn1c(CNCC(N)=O)nc2ccc(-c3ccccc3)cc21` [Example 66, N^2-{[1-(2-ethoxyethyl)-6-phenyl-1H-benzimidazol-2-yl]methyl}glycinamide], the inhibition at 12.5 µM was determined as 16.8%.

As for `CCOCCn1c(CNCC(N)=O)nc2ccc(-c3ccc(F)cc3)cc21` [Example 67], the inhibition at 12.5 µM amounted to 30.8%.

The values above are taken from patent US20130303535A1, “NOVEL BICYCLIC HETEROCYCLIC COMPOUND” (priority 2008, published 2013).
